How the values were obtained:
Format in all cases: biochemical
GC-A = target: T1, GC-A (Rattus norvegicus, UniProt P18910); test: GC assay; conditions: for increase of ANP-stimulated GC-A activity by adenine nucleotide: saturating ANP; for EC50: EC50 for activation
T1 sequence (P18910 29-1057): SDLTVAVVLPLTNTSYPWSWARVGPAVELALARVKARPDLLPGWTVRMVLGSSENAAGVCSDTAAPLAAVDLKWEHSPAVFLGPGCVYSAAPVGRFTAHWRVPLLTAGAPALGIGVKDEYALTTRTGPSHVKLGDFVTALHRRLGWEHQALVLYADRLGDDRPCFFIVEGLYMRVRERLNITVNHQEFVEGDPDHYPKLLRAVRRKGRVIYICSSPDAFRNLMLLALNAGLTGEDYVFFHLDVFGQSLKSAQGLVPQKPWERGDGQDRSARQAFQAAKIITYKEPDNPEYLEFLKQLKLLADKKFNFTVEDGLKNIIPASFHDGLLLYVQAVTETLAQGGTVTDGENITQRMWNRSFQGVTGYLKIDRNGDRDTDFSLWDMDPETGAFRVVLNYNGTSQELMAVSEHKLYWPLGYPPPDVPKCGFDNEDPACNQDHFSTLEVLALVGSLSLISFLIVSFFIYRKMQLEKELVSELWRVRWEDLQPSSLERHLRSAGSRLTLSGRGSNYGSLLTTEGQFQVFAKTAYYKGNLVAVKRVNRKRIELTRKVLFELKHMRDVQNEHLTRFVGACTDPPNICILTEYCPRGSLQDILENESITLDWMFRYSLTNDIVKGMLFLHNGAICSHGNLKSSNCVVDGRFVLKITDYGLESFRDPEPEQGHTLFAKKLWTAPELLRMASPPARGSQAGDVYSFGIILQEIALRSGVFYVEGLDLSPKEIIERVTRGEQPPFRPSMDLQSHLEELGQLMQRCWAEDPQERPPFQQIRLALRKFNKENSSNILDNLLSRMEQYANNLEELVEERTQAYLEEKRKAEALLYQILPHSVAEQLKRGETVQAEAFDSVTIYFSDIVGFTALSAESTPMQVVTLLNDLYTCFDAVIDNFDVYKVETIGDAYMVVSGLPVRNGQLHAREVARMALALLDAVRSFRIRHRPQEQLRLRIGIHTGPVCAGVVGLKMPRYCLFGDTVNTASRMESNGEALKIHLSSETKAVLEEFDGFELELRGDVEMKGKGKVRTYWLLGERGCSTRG
T1 sequence (P01161 123-150 partner limits assumed): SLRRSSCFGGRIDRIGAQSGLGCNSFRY

GC-B = GC-B (Rattus norvegicus, UniProt P16067); test: GC assay
endogenous GC-B = endogenous GC-B (Mus musculus, UniProt Q6VVW5); test: GC assay in crude membranes from NIH 3T3 cells; conditions: 125 nM CNP, 0.1 mM GTP
[1] = 1 μM ANP, 9 min, nucleotide at 1 mM
[2] = NP-stimulated, 9 min, 10 μM ATP
[3] = NP-stimulated, 9 min, 100 μM ATP
[4] = CNP-stimulated, presence of ATP
[5] = NP-stimulated, 9 min, 750 μM ATP
[6] = presence of CNP, absence of ATP, increasing Mg2+GTP

Chain of GC-B (P16067 17-1047): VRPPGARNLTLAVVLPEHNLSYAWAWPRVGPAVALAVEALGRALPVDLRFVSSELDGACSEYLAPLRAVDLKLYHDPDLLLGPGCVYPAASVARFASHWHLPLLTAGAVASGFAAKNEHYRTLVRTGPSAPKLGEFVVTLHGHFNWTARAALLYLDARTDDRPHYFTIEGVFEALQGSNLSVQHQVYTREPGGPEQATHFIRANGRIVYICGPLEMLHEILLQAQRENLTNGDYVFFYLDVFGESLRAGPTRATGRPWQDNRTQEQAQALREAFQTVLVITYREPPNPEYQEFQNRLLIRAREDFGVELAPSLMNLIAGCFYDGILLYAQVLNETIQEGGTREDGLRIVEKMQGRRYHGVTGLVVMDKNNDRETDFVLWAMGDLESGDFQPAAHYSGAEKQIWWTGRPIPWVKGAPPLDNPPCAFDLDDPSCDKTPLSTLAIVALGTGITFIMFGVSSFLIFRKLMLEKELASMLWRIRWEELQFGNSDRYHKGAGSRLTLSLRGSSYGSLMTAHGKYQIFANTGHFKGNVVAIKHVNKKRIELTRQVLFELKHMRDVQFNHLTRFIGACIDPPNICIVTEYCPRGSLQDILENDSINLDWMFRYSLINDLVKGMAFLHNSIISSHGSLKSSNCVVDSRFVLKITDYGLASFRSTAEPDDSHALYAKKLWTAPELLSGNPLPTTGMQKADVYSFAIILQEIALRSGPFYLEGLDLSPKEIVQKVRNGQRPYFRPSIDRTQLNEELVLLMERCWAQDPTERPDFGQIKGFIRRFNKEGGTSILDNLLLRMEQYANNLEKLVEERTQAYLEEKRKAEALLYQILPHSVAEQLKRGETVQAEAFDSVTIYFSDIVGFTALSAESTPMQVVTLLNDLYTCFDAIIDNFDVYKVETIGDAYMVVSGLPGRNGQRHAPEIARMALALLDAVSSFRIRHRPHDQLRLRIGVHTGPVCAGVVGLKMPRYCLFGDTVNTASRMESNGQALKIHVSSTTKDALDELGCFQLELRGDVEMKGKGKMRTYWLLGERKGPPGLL
Chain of GC-B (P55207 105-126 partner limits assumed): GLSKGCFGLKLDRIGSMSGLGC
Chain of endogenous GC-B (Q6VVW5 17-1047): as the sequence (P16067 17-1047) above, with H100R, T188A, E385D, I449V, R1024Q counted along it

`Nc1ncnc2c1ncn2[C@H]1C[C@H](O)[C@@H](COP(=O)(O)OP(=O)(O)OP(=O)(O)O)O1` [2′-deoxy-ATP] was tested, and the Hill coefficient (GC-A; [1]) was 1.2 ± 0.24, the Km (GC-A; [1]) was 400 ± 80 µM and the “activation of GC-A compared with ATP” value (GC-A; single-substrate concentration GC assays, 0.1 mM GTP, ANP) was “poorer activator of GC-A than was ATP”.

For `Nc1ncnc2c1ncn2[C@@H]1O[C@H](COP(=O)(O)OP(=O)(O)O)[C@@H](O)[C@H]1O` [ADP, adenosine diphosphate], the Hill coefficient (GC-A; [1]) was 1.1 ± 0.18 and the Km (GC-A; [1]) was 200 ± 40 µM.

For `Nc1ncnc2c1ncn2[C@@H]1O[C@H](COP(=O)(O)O)[C@@H](O)[C@H]1O` [AMP, adenosine monophosphate], the “increase of ANP-stimulated GC-A activity by adenine nucleotide” value (GC-A; 0.1 mM GTP) was “failed to increase activity”.

Compound `Nc1ncnc2c1ncn2[C@@H]1O[C@H](COP(=O)(O)OP(=O)(O)OP(=O)(O)O)[C@@H](O)[C@H]1O` [ATP, adenosine triphosphate] has a Km (GC-A; [1]) of 100 ± 20 µM, an EC50 (GC-A; NP-stimulated, 0.1 mM GTP) of 77 µM and an EC50 (GC-A; NP-stimulated, 0.3 mM GTP) of 38 µM. The EC50 (GC-A; NP-stimulated, 0.9 mM GTP) was 38 µM, the EC50 (GC-A; NP-stimulated, 5.4 mM GTP) was 16 µM and the Km (GC-A; NP-activated receptor, presence of ATP) was ~100 µM. The Hill coefficient (GC-A; [2]) was 1.2 ± 0.08, the Hill coefficient (GC-A; [3]) was 0.9 ± 0.07 and the Michaelis constant (GC-A; [3]) was 0.08 ± 0.010 mM. The S0.5 (GC-B; [4]) was 0.09 ± 0.02 mM, the Vmax (GC-B; [4]) was 41 ± 3.1 nmol mg^−1 (9 min)^−1 and the EC50 (GC-B; EC50 for ATP activation, approximate value stated in the discussion) was ~100 µM. It also gave an EC50 (GC-B; EC50 for activation, NP-stimulated, 0.1 mM GTP) of 40 µM, an EC50 (GC-B; EC50 for activation, NP-stimulated, 0.3 mM GTP) of 26 µM and an EC50 (GC-B; EC50 for activation, NP-stimulated, 0.9 mM GTP) of 16 µM. The EC50 (GC-B; EC50 for activation, NP-stimulated, 5.4 mM GTP) was 19 µM, the Hill coefficient (GC-B; [2]) was 0.9 ± 0.13 and the Michaelis constant (GC-B; [2]) was 0.4 ± 0.11 mM. The Hill coefficient (GC-B; [5]) was 0.9 ± 0.24, the Michaelis constant (GC-B; [5]) was 0.2 ± 0.18 mM and the Hill coefficient (GC-B; absence of NPs, presence of ATP) was 1.1. For the same compound, the S0.5 (GC-B; basal (no NP), presence of ATP) was 1.0 ± 0.15 mM and the Vmax (GC-B; basal (no NP), presence of ATP) was 4 ± 0.3 nmol mg^−1 (9 min)^−1.

In the case of `Nc1ncnc2c1ncn2[C@@H]1O[C@H](CO)[C@@H](O)[C@H]1O` [adenosine], the “increase of ANP-stimulated GC-A activity by adenine nucleotide” value (GC-A; 0.1 mM GTP) is reported as “failed to increase activity”.

With C-type natriuretic peptide [CNP] the “increase of maximal velocity” value (GC-B; absence of ATP) was 13 fold, the S0.5 (GC-B; [6]) was 1.0 ± 0.15 mM and the Vmax (GC-B; [6]) was 49 ± 3.7 nmol mg^−1 (9 min)^−1. For the same compound, the “increase of GC-B activity” value (endogenous GC-B; absence of ATP) was “no statistically significant increase in activity” and the “increase of GC-B activity” value (endogenous GC-B; presence of 1 mM ATP) was “more than fourfold”.

— article PMC4411398 (Science signaling, 2012)
